According to patent publication US8268853B2, “3,9-diazaspiro[5,5]undecane amides and ureas and methods of use thereof” (Abbott Laboratories, priority 2009, dated 2012):

Columns and labels:
human α4β2 NNR = target: T1, human α4β2 NNR (Homo sapiens, UniProt P17787+P43681); assay: Calcium flux assay (FLIPR), potentiation of submaximal nicotine response in HEK 293 cells expressing α4β2; format: cell-based; conditions: HEK 293 cells expressing human α4β2; potentiation of submaximal (EC20-30%) agonist such as nicotine; read-out: EC50 (α4β2 PAM)
T1 construct: expressed in transfected cells
Description: One manner to characterize α4β2 PAM activity is by characterization in clonal cell lines (for example, human embryonic kidney 293 cells) expressing the human neuronal nicotinic acetylcholine receptor subtype α4β2, particularly by use of Fluorescent Image Plate Reader technology. Effects on calcium flux or membrane potential changes can be assessed. Such assays have been reported and further details for carrying out the assays can be obtained in International Publication No. WO 2006/114400. Another method to identify and characterize allosteric modulator activity is by expressing the α4β2 subunits in Xenopus oocytes, and by measuring electrophysiological effects on ligand-evoked current responses as previously described in Curtis, L., et al., Molecular Pharmacology, 61: 127-135, 2002.
To determine the effectiveness of representative compounds of this invention as ligands for α4β2 PAM activity, the compounds of the invention can be evaluated according to the Calcium Flux Assay described below.
Calcium Flux Assays using Cells Expressing NNR Subtypes
Human embryonic kidney (HEK) 293 cells stably expressing human α4β2 or α3β4 combinations are grown to confluency in 162 cm^2 tissue culture flasks in DMEM media supplemented with 10% FBS and 25 μg/mL zeocin and 200 μg/mL hygromycin B. Cells expressing rat or ferret subunits may also be used. For assessing α3* or α7* selectivity, IMR-32 cells may also be used. IMR-32 neuroblastoma cells (ATCC) are grown to confluency in 162 cm^2 tissue culture flasks in minimum essential media supplemented with 10% FBS and 1 mM sodium pyruvate, 1% non-essential amino acids and 1% antibiotic-antimycotic. For the calcium flux assay, the cells are then dissociated using cell dissociation buffer and 100-150 μL per well of 3.5×10^5 cells/mL cell suspension (˜50,000-100,000 cells/well) was plated into 96-well black plates (poly-D-lysine precoated) with clear bottom and maintained for 24-48 hours in a tissue culture incubator at 37° C. under an atmosphere of 5% CO2: 95% air. Other clonal cell lines or primary cell cultures that express endogenous α4* nicotinic receptors may also be used in this assay. Calcium flux was measured using calcium-3 assay kit (Molecular Devices, Sunnyvale, Calif.) or fluo-4 (Invitrogen). A stock solution of the dye was prepared by dissolving each vial supplied by the vendor in Hank's balanced salt solution buffer (HBSS) or 150 mM NMDG, 20 mM calcium chloride containing 10 mM HEPES. The stock solution was diluted 1:20 using the same buffer before use. The growth media was removed from the cells. The cells were loaded with 100 μL of the dye per well and incubated at room temperature for up to one hour for HEK 293 clonal stable cell lines or 30 minutes-45 minutes at 37° C. for IMR-32 cells. Fluorescence measurements were read simultaneously from all the wells by a Fluorometic Imaging Plate Reader (FLIPR) at an excitation wavelength of 480 nm and an emission wavelength of 520 nm. Baseline fluorescence was measured for the first 6 seconds at which 3× concentrations of modulator/test compounds were added to the cell plate at 50 μL and incubated for five minutes. The fluorescence intensity was captured every second for the first 1 minute followed by every 5 seconds for an additional 4 minutes. This procedure was followed by 50 μL of 4× concentration of agonist and readings were taken for a period of 3-5 minutes as described above.
The ability of test compounds to positively modulate the response (i.e., increase the response) induced by a submaximal concentration of agonist (EC20-30%) such as nicotine is measured. Potentiation is measured based on peak fluorescence responses by screening compounds at fixed concentrations or in a concentration-response manner to derive EC50 values. The concentration dependence of changes in fluorescence responses is fitted by nonlinear regression analysis (GraphPad Prism, San Diego, Calif.) to obtain EC50 values. […]

[1] = target: T2, hERG cardiac potassium channel (Homo sapiens, UniProt Q12809); assay: [3H]dofetilide/HEK-293 membrane competition binding assay; conditions: displacement of [3H]dofetilide, HEK-293 membrane homogenates expressing hERG; Ki from IC50 by Cheng-Prusoff
T2 construct: expressed in transfected cells; host or cells: HEK-293 cells (membrane homogenate)
Description: Drugs that block the cardiac potassium channel encoded by the human ether-a-go-go gene (hERG) have been associated clinically with QT interval prolongation, proarrhythmia, and in some rare cases, sudden cardiac death. The identification of drugs that block hERG has become a critical component of the safety profile. The [^3H]dofetilide/HEK-293 membrane competition binding assay described below permits the ranking of compounds for their potential to block the hERG potassium channel.
[^3H]dofetilide/HEK-293 Membrane Competition Binding Assay
The binding affinity of test drugs for the hERG cardiac potassium channel was determined by their ability to displace tritiated dofetilide (a class III antiarrhythmic drug and potent hERG blocker) in membrane homogenates from HEK-293 cells heterogously expressing the hERG channel. The assay was performed as previously described (Diaz, G.; Daniell, K.; Leitza, S. T.; Martin, R. L.; Su, Z.; McDermott, J. S.; Cox, B. F.; Gintant, G. A. The [^3H]dofetilide binding assay is a predictive screening tool for hERG blockade and proarrhythmia: Comparison of intact cell and membrane preparations and effects of altering [K^+]O. Journal of Pharmacological and Toxicological Methods 2004, 50, 187-199.). Briefly, drug dilutions were prepared from 10 mM dimethyl sulfoxide stocks and the following were added to a 96-well polystyrene plate (Perkin-Elmer Optiplate): 20 μL of assay binding buffer (for total bounds), or 1 μM astemizole (for non-specific bounds), or test drug, 50 μL of [^3H]dofetilide (20 nM, ˜80 Ci/mmol specific activity), and 130 μL of membrane homogenate (final protein concentration of 30 μg per well). The plates were incubated at ambient temperature for 45 minutes, aspirated onto GF/B filter plates (Perkin-Elmer), and washed with 2 mL of cold wash buffer. After allowing the plates to dry, 50 μL of scintillant (Perkin-Elmer MicroScint 20) were added to each well and the radioactivity was counted in a Perkin-Elmer Topcount NXT scintillation counter. IC50 determinations were calculated from competition curves using 6 drug concentrations, half-log apart, starting at a high concentration of 100 μM (final assay dimethyl sulfoxide concentration=1%) using a four-parameter logistic equation. Ki values were derived from the calculated IC50 values by using the Cheng and Prusoff (Cheng, Y.; Prusoff, W. H. Relationship between the inhibition constant (KI) and the concentration of inhibitor which causes 50 percent inhibition (I50) of an enzymatic reaction. Biochemical Pharmacology 1973, 22(23), 3099-3108) equation (Ki=IC50/1+[ligand]/Kd) using Kd values for [^3H]dofetilide obtained from saturation assays previously described (Diaz et al., 2004).

T1 sequence (P43681 29-627 limits assumed): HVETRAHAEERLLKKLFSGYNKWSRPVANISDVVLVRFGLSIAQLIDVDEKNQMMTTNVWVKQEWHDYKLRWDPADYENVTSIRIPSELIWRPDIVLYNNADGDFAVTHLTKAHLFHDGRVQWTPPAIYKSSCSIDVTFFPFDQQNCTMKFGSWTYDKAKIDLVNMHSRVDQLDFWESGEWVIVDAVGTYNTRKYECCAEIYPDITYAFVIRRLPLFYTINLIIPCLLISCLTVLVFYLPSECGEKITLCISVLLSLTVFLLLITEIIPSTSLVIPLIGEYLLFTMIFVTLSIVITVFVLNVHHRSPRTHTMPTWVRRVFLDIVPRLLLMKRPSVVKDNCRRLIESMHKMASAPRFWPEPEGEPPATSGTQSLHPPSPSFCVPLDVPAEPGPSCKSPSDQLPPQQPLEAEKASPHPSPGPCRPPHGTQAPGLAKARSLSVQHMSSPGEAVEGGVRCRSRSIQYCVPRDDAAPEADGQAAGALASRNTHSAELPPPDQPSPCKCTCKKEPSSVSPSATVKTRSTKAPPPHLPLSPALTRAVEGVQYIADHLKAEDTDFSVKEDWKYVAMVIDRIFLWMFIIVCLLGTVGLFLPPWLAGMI
T1 sequence (P17787 26-502): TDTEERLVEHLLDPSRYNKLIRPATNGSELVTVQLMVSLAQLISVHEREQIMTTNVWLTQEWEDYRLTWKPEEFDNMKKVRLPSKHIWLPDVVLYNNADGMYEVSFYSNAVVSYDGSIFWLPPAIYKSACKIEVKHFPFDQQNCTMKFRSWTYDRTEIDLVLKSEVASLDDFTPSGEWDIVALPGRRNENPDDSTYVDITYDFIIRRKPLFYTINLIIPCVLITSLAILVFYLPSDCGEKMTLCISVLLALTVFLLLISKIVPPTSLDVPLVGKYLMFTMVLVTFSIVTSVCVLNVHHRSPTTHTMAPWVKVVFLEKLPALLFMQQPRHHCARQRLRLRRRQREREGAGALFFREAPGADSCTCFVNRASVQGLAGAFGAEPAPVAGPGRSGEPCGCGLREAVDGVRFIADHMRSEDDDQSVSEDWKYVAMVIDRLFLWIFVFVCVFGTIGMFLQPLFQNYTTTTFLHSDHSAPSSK
T2 sequence (Q12809 whole entry): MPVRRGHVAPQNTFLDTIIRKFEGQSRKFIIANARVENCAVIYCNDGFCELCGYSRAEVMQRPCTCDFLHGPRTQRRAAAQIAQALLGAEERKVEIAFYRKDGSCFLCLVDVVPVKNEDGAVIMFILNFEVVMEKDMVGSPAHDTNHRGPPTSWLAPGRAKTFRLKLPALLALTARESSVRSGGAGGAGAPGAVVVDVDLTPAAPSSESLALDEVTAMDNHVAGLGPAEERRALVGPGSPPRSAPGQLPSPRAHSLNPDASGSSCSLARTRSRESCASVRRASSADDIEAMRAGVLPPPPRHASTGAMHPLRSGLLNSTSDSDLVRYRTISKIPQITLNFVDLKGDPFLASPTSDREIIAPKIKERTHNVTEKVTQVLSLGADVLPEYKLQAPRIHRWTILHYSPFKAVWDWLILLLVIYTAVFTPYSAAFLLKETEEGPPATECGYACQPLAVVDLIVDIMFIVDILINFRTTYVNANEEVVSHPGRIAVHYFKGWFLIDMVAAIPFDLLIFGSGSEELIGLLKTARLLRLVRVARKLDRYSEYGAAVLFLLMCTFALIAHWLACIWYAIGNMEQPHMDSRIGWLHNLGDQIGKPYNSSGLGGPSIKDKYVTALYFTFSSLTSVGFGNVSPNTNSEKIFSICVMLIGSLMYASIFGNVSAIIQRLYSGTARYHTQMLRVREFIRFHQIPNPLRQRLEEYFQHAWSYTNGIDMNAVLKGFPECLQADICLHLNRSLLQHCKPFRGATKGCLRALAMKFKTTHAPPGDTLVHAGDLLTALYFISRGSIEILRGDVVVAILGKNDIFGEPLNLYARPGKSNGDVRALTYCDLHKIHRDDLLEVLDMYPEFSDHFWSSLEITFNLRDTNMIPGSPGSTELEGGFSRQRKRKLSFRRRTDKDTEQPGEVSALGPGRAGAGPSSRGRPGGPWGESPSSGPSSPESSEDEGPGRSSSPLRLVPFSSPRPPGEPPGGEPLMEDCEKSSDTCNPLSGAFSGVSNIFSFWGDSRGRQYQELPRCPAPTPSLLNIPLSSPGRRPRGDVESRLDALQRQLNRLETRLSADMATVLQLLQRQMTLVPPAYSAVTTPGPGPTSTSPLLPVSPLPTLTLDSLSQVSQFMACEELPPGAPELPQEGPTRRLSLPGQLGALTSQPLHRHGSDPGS

SMILES	EC50 (human α4β2 NNR)	Ki [1]
COc1cc(C(=O)N2CCC3(CCN(C)CC3)CC2)ccc1F [Example 2, 3-(4-fluoro-3-methoxybenzoyl)-9-methyl-3,9-diazaspiro[5.5]undecane]	970 nM	> 53000 nM
COc1ccc(C(=O)N2CCC3(CCN(C)CC3)CC2)cc1F [Example 3, 3-(3-fluoro-4-methoxybenzoyl)-9-methyl-3,9-diazaspiro[5.5]undecane]	4300 nM	13000 nM
COc1ccc(C(=O)N2CCC3(CCN(C)CC3)CC2)cc1Cl [Example 4, 3-(3-chloro-4-methoxybenzoyl)-9-methyl-3,9-diazaspiro[5.5]undecane]	160 nM	16000 nM
COc1c(Cl)cc(C(=O)N2CCC3(CCN(C)CC3)CC2)cc1Cl [Example 5, 3-(3,5-dichloro-4-methoxybenzoyl)-9-methyl-3,9-diazaspiro[5.5]undecane]	40 nM	19000 nM
COc1cc(C(=O)N2CCC3(CCN(C)CC3)CC2)cc(Cl)c1OC [Example 6, 3-(3-chloro-4,5-dimethoxybenzoyl)-9-methyl-3,9-diazaspiro[5.5]undecane]	360 nM	> 54000 nM
COc1ccc(NC(=O)N2CCC3(CCN(C)CC3)CC2)cc1F [Example 7, N-(3-fluoro-4-methoxyphenyl)-9-methyl-3,9-diazaspiro[5.5]undecane-3-carboxamide]	1620 nM	8500 nM
COc1ccc(NC(=O)N2CCC3(CCN(C)CC3)CC2)cc1Cl [Example 8, N-(3-chloro-4-methoxyphenyl)-9-methyl-3,9-diazaspiro[5.5]undecane-3-carboxamide]	610 nM	
COc1cc(OC)c(NC(=O)N2CCC3(CCN(C)CC3)CC2)cc1Cl [Example 9, N-(5-chloro-2,4-dimethoxyphenyl)-9-methyl-3,9-diazaspiro[5.5]undecane-3-carboxamide]	3740 nM	
COc1ccc(CC(=O)N2CCC3(CCN(C)CC3)CC2)cc1F [Example 10, 3-[(3-fluoro-4-methoxyphenyl)acetyl]-9-methyl-3,9-diazaspiro[5.5]undecane]	1690 nM	
